Earlier results as cited in patent US7718658B2 (priority 2004, dated 2010).

Test system: neuropathic pain
Details: in vivo

## NCC1(CC(=O)O)CCCCC1 [Gabapentin]
  share of patients in whom it works: 60%
